Measured values from ChEMBL document CHEMBL4368940, “Development of a novel NURR1/NOT agonist from hit to lead and candidate for the potential treatment of Parkinson's disease” (Bioorg Med Chem Lett, 2019).

Tests used:
[1] = biological target: Nuclear receptor subfamily 4 group A member 2 (Mus musculus) (UniProt Q06219); experiment: (§1) Agonist activity at Nurr1 in mouse N2A cells harboring NBRE by luciferase reporter gene assay; format: cell-based
[2] = biological target: Nuclear receptor subfamily 4 group A member 2 (Homo sapiens, UniProt P43354); experiment: Agonist activity at full-length Gal4-fused NOT (unknown origin) expressed in CHO cells by luciferase reporter gene assay; format: cell-based
Chain of Nuclear receptor subfamily 4 group A member 2 (Homo sapiens, UniProt P43354) (P43354 whole entry, the tested form may be a part): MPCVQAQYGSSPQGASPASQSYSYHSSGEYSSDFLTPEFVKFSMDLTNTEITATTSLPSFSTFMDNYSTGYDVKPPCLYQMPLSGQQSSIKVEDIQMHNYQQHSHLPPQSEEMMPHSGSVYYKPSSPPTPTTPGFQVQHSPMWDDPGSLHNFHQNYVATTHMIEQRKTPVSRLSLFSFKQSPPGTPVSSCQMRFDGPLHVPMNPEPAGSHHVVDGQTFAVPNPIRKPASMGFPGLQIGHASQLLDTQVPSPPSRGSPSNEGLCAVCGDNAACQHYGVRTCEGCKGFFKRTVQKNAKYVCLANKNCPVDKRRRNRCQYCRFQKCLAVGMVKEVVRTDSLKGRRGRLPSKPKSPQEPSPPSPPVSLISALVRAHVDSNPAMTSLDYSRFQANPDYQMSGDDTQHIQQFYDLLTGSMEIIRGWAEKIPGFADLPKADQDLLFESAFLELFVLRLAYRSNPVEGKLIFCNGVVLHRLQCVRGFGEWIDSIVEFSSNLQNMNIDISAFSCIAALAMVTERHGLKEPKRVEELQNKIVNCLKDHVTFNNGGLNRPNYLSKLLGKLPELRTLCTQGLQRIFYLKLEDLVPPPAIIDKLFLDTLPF

[3] = biological target: Nuclear receptor subfamily 4 group A member 2 (Mus musculus, UniProt Q06219); experiment: as §1; format: cell-based
Chain of Nuclear receptor subfamily 4 group A member 2 (Mus musculus, UniProt Q06219) (Q06219 whole entry): as the sequence (P43354 whole entry, the tested form may be a part) above, with T131S, G134S, E354D counted along it

[4] = Solubility of the compound by HPLC analysis; format: physicochemical
CYP450 = CYP450 (Homo sapiens, UniProt P04798+P05177+P05181+P08684+P10632+P10635+P11509+P11712+P13584+P20813+P20815+P20853+P24462+P24903+P33260+P33261+P51589+P78329+P98187+Q02928+Q08477+Q16678+Q16696+Q5TCH4+Q6VVX0+Q7Z449+Q8TAV3+Q96SQ9+Q9HB55); experiment: Induction of CYP450 (unknown origin); format: ADME, protein assay
Cytochrome P450 2D6 = Cytochrome P450 2D6 (Homo sapiens, UniProt P10635); experiment: Inhibition of CYP2D6 (unknown origin); format: ADME
Chain of Cytochrome P450 2D6 (P10635 whole entry): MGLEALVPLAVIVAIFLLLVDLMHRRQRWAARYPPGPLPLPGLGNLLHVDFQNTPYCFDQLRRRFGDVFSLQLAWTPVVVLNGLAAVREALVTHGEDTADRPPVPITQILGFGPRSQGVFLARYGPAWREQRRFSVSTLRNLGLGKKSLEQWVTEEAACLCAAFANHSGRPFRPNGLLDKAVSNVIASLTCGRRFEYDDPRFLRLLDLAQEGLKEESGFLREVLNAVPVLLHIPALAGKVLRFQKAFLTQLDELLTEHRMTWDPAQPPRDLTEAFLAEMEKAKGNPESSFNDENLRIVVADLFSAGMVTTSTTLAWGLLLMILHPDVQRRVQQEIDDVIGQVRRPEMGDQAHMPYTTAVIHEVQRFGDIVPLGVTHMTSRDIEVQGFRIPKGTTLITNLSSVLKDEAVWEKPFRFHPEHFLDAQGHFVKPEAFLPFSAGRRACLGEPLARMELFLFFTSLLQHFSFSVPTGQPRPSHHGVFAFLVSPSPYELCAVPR

[5] = Lipophilicity, log D of the compound; format: physicochemical; settings: octanol/water
[6] = Drug metabolism in human liver microsomes; format: ADME, Microsome; settings: read-out: Drug metabolism
[7] = biological target: Voltage-gated inwardly rectifying potassium channel KCNH2 (Homo sapiens, UniProt Q12809); experiment: Activation of human ERG
Chain of Voltage-gated inwardly rectifying potassium channel KCNH2 (Q12809 whole entry): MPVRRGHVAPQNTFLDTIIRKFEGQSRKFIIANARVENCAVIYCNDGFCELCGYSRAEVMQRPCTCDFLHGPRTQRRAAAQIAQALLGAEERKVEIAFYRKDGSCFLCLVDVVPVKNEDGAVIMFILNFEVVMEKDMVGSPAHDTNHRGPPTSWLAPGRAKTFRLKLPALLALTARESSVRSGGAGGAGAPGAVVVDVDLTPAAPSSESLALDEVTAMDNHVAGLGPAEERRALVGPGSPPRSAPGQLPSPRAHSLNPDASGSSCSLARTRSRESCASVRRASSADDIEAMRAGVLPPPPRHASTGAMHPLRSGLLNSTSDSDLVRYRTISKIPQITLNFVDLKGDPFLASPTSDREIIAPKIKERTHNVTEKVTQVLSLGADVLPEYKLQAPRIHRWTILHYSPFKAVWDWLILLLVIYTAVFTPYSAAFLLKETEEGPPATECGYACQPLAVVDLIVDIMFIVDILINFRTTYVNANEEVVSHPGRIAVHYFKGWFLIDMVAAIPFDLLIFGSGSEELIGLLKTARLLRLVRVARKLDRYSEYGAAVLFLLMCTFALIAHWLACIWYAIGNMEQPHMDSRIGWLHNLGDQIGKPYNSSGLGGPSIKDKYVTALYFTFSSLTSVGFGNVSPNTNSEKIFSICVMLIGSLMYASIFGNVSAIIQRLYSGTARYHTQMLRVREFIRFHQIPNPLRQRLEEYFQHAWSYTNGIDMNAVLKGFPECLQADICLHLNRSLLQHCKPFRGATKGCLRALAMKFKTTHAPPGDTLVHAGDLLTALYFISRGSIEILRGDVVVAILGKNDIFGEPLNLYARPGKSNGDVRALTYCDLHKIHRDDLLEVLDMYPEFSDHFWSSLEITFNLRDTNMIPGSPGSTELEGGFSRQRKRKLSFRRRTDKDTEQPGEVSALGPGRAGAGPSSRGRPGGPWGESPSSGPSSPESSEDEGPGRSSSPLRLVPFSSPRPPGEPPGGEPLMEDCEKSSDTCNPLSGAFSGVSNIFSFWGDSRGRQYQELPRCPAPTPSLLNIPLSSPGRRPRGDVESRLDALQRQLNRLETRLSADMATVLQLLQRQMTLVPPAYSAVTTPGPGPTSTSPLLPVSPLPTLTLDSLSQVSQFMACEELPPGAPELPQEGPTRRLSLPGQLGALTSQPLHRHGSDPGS

[8] = Apparent permeability in human Caco2 cells; format: ADME, cell-based; settings: caco-2
Cytochrome P450 3A4 = Cytochrome P450 3A4 (Homo sapiens, UniProt P08684); experiment: Inhibition of CYP3A4 (unknown origin); format: ADME
Chain of Cytochrome P450 3A4 (P08684 whole entry): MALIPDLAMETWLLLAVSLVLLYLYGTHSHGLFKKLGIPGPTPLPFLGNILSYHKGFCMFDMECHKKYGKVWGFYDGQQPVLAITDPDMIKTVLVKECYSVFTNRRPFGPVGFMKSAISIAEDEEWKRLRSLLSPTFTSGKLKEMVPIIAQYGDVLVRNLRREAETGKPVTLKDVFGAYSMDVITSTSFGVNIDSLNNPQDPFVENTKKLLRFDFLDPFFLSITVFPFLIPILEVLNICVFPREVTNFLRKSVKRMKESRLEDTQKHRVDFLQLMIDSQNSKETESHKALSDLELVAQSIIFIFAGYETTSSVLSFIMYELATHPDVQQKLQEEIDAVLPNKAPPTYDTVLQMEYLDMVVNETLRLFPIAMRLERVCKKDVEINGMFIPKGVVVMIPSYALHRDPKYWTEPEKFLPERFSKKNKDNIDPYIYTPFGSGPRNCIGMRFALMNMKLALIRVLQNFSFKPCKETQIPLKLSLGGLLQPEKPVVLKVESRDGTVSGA

[9] = Stability in mouse plasma; format: ADME, cell-free
[10] = Genotoxicity in Salmonella typhimurium by Ames test; format: toxicity; settings: salmonella enterica subsp. enterica serovar typhimurium
[11] = Clearance in human hepatocytes assessed per million cells; format: ADME, cell-based, Hepatocyte
[12] = biological target: Nuclear receptor subfamily 4 group A member 2 (Rattus norvegicus) (UniProt Q07917); experiment: Agonist activity at Nurr1 in rat mesencephalic primary neurons assessed as increase in tyrosine hydroxylase expression at 3 uM
Chain of Nuclear receptor subfamily 4 group A member 2 (Rattus norvegicus) (Q07917 whole entry): as the sequence (P43354 whole entry, the tested form may be a part) above, with T131S, P182R, E354D counted along it

[13] = Drug metabolism in mouse liver microsomes assessed as amide hydrolysis by measuring 6-(pyridin-2-yl)imidazo[1,2-a]pyridine-2-carboxylic acid formation; format: ADME, Microsome
[14] = Drug metabolism in mouse liver microsomes; format: ADME, Microsome; settings: read-out: Drug metabolism
Cytochrome P450 2C9 = Cytochrome P450 2C9 (Homo sapiens, UniProt P11712); experiment: Inhibition of CYP2C9 (unknown origin); format: ADME
Chain of Cytochrome P450 2C9 (P11712 whole entry): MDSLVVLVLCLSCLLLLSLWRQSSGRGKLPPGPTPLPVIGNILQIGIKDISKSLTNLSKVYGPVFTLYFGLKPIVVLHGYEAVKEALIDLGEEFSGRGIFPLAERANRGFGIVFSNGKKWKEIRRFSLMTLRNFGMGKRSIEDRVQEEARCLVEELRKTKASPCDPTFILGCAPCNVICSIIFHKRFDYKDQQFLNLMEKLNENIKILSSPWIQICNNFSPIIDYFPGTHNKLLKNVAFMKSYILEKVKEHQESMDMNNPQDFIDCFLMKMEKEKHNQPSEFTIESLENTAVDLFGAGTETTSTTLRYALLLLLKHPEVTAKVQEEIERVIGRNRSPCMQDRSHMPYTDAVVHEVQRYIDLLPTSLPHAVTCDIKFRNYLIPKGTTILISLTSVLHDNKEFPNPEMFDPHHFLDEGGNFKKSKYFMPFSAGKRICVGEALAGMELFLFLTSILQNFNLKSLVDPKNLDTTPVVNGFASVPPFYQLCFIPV

[15] = Dissociation constant, pKa of the compound; format: physicochemical
[16] = Stability in human plasma; format: ADME, cell-free
[17] = Drug metabolism in mouse liver microsomes assessed as amide hydrolysis by measuring aniline formation; format: ADME, Microsome
[18] = Drug level in mouse liver microsomes treated with N-phenyl-6-(pyridin-2-yl)imidazo[1,2-a]pyridine-2-carboxamide assessed as metabolite formation; format: ADME, Microsome
hERG = hERG (Homo sapiens, UniProt Q12809); experiment: Inhibition of human ERG at 10 uM
Chain of hERG (Q12809 whole entry): as the sequence (Q12809 whole entry) above

Chain of Nuclear receptor subfamily 4 group A member 2 (Mus musculus) (Q06219 whole entry, the tested form may be a part): as the sequence (P43354 whole entry, the tested form may be a part) above, with T131S, G134S, E354D counted along it

SMILES	Emax [1]	EC50 ([2]; read-out: EC50)	also measured
O=C(Nc1nccs1)c1cn2cc(-c3ccccn3)ccc2n1	72%	> 1000 nM	
OC(c1cccc(-c2ccc3nc(-c4ccc(Cl)cc4)cn3c2)c1)C1CCCC1 (stereo not given)		> 3000 nM	
O=C(Nc1cccc(F)n1)c1cn2cc(-c3ccccn3)ccc2n1	86%	25 nM	EC50 [3]: 0.6 nM; Emax [2]: 138%
O=C(Nc1ccsc1)c1cn2cc(-c3ccccn3)ccc2n1	85%	> 1000 nM	EC50 [3]: 1 nM
O=C(Nc1cc(F)ccc1F)c1cn2cc(-c3ccccn3)ccc2n1	68%	> 1000 nM	EC50 [3]: 1 nM
CCN(CC)C(=O)c1cccc(-c2ccc3nc(-c4ccc(Cl)cc4)cn3c2)c1		> 3000 nM	
O=C(Nc1ccon1)c1cn2cc(-c3ccccn3)ccc2n1	62%	> 1000 nM	EC50 [3]: 20 nM
N#Cc1ccccc1NC(=O)c1cn2cc(-c3ccccn3)ccc2n1	52%	> 1000 nM	EC50 [3]: 292 nM
O=C(Nc1ccccc1)c1cn2cc(-c3ccccn3)ccc2n1	204%	140 nM	solubility [4]: < 1 µM; Emax (CYP450): < 20%; EC50 [3]: 1 nM; IC50 (Cytochrome P450 2D6): > 10000 nM; logD [5]: 3.65; metabolised [6]: 20%; EC50 [7]: > 10000 nM; permeability [8]: Permeable; IC50 (Cytochrome P450 3A4): > 10000 nM; Stability [9]: Unstable; Activity [10]: Non-Toxic; Emax [2]: 203%; CLH [11]: 0.128 mL/h; Activity [12]: 174 to 216%; Drug metabolism [13]: Metabolite_Detected; metabolised [14]: 21%; IC50 (Cytochrome P450 2C9): 8600 nM; pKa [15]: 3.6; Stability [16]: Stable; Drug metabolism [17]: Metabolite_Detected
Clc1ccc(-c2cn3cc(-c4cccc(CN5CCOCC5)c4)ccc3n2)cc1		> 3000 nM	
OCc1cccc(-c2ccc3cc(-c4ccc(Cl)cc4)cn3c2)c1			EC50 ([2]; cho): Not Active
CCC(C)C(O)c1cccc(-c2ccc3nc(-c4ccc(Cl)cc4)cn3c2)c1 (stereo not given)		> 3000 nM	
CCCCCCC(O)c1cccc(-c2ccc3nc(-c4ccc(Cl)cc4)cn3c2)c1 (stereo not given)		> 3000 nM	
OC(c1ccccc1)c1cccc(-c2ccc3nc(-c4ccc(Cl)cc4)cn3c2)c1 (stereo not given)		> 3000 nM	
O=C(Nc1ccccc1Cl)c1cn2cc(-c3ccccn3)ccc2n1	68%	> 1000 nM	EC50 [3]: 26.5 nM
O=C(Nc1cc(F)cc(F)c1)c1cn2cc(-c3ccccn3)ccc2n1	85%	> 1000 nM	EC50 [3]: 2.5 nM
Cc1ccc(-c2ccc3nc(-c4ccc(Cl)cc4)cn3c2)cc1CO		> 1000 nM	
O=C(Nc1cccc(F)c1)c1cn2cc(-c3ccccn3)ccc2n1	103%	> 1000 nM	EC50 [3]: 1 nM
Nc1ccccc1 [ANILINE]			Drug metabolism [18]: Metabolite_Detected
OCc1cccc(-c2ccc3nc(-c4ccc(Cl)cc4)nn3n2)c1			EC50 ([2]; cho): Not Active
CC(O)c1cccc(-c2ccc3nc(-c4ccc(Cl)cc4)cn3c2)c1 (single isomer, unassigned; (-))		219 nM	
OC1(c2cccc(-c3ccc4nc(-c5ccc(Cl)cc5)cn4c3)c2)CCOCC1		> 1000 nM	
CC(O)c1cccc(-c2ccc3nc(-c4ccc(Cl)cc4)cn3c2)c1 (racemic)		99 nM	
CNC(=O)c1cccc(-c2ccc3nc(-c4ccc(Cl)cc4)cn3c2)c1			Emax [2]: 226%
O=C(Nc1cccc(F)c1F)c1cn2cc(-c3ccccn3)ccc2n1	64%	> 1000 nM	
CC(O)c1cccc(-c2ccc3nc(-c4ccc(Cl)cc4)cn3c2)c1 (single isomer, unassigned; (+))		75 nM	CLH [11]: 0.45 mL/h

SMILES	Emax [1]	EC50 ([2]; read-out: EC50)	also measured
OCc1c(F)ccc(-c2ccc3nc(-c4ccc(Cl)cc4)cn3c2)c1F		38 nM	inhibition at 10 µM (hERG): 24%; CLH [11]: 0.1368 mL/h
OCc1cccc(-c2cn3cc(-c4ccc(Cl)cc4)nc3cn2)c1			EC50 ([2]; cho): Not Active
OCc1cccc(-c2ccc3nc(-c4ccc(Cl)cc4)cn3n2)c1			EC50 ([2]; cho): Not Active
CNCc1cccc(-c2ccc3nc(-c4ccc(Cl)cc4)cn3c2)c1		> 3000 nM	
Cc1cccc(-c2ccc3nc(-c4ccc(Cl)cc4)cn3c2)c1		> 3000 nM	
OCc1cccc(-c2ccc3nc(-c4ccc(Cl)cc4)cn3c2)c1F		14 nM	CLH [11]: 0.188 mL/h
Cc1c(CO)cccc1-c1ccc2nc(-c3ccc(Cl)cc3)cn2c1		> 1000 nM	
Clc1ccc(-c2cn3cc(-c4cccc(CN5CCCC5)c4)ccc3n2)cc1		> 3000 nM	
O=C(Nc1nncs1)c1cn2cc(-c3ccccn3)ccc2n1	70%	> 1000 nM	EC50 [3]: 67.6 nM
CC(C)(O)c1c(F)ccc(-c2ccc3nc(-c4ccc(Cl)cc4)cn3c2)c1F		> 1000 nM	inhibition at 10 µM (hERG): 70%
O=C(Nc1ccccn1)c1cn2cc(-c3ccccn3)ccc2n1	87%	> 1000 nM	EC50 [3]: 2 nM
NC(=O)c1cccc(-c2ccc3nc(-c4ccc(Cl)cc4)cn3c2)c1			Emax [2]: 210%
COCc1cccc(-c2ccc3nc(-c4ccc(Cl)cc4)cn3c2)c1		> 3000 nM	
O=C(Nc1cnoc1)c1cn2cc(-c3ccccn3)ccc2n1	85%	> 1000 nM	EC50 [3]: 55 nM
CCC(O)c1cccc(-c2ccc3nc(-c4ccc(Cl)cc4)cn3c2)c1 (stereo not given)		> 1000 nM	
O=C(O)c1cn2cc(-c3ccccn3)ccc2n1			Drug metabolism [18]: Metabolite_Detected
CC(O)(CO)c1cccc(-c2ccc3nc(-c4ccc(Cl)cc4)cn3c2)c1 (stereo not given)		> 1000 nM	
CN(C)Cc1cccc(-c2ccc3nc(-c4ccc(Cl)cc4)cn3c2)c1		> 3000 nM	
OC1(c2cccc(-c3ccc4nc(-c5ccc(Cl)cc5)cn4c3)c2)COC1		323 nM	
OCc1cc(-c2ccc3nc(-c4ccc(Cl)cc4)cn3c2)ccc1F		> 1000 nM	
N#Cc1cccc(-c2ccc3nc(-c4ccc(Cl)cc4)cn3c2)c1		> 3000 nM	
O=C(Nc1ccccc1F)c1cn2cc(-c3ccccn3)ccc2n1	104%	> 1000 nM	EC50 [3]: 1 nM
O=C(Nc1cc[nH]n1)c1cn2cc(-c3ccccn3)ccc2n1	61%	> 1000 nM	
CCCCCC(O)c1cccc(-c2ccc3nc(-c4ccc(Cl)cc4)cn3c2)c1 (stereo not given)		> 3000 nM	
CCCCC(O)c1cccc(-c2ccc3nc(-c4ccc(Cl)cc4)cn3c2)c1 (stereo not given)		> 3000 nM	
